The values below come from US20080267942A1, “BENZAZEPIN-2(1H)-ONE DERIVATIVES” (Pfizer Limited, priority 2006, published 2008).

Assay [1] has as its target T1, bovine beta-2 adrenoceptor (Bos taurus, UniProt Q28044).
T1 construct: expressed in transfected cells; host or cells: CHO cells
Put plainly: cAMP assay in CHO cells transfected with the bovine beta-2 adrenoceptor (DiscoveRx Hit Hunter cAMP II). It counts as cell-based. The note with it: CHO cells transfected with bovine beta-2 adrenoceptor, 30 minutes incubation with compound. As for the experimental part:
(§1) CHO cells transfected with the bovine or porcine beta-2 adrenceptors were maintained in culture in DMEM/HAMS F12+10% FBS+2 mM glutamine+500 μg/ml geneticin (for the porcine receptor the medium was supplement with 1.5 mM HEPES) at 37° C. with a 5% CO2 atmosphere.
(§2) Cells were plated into 96 well viewplates in medium and incubated overnight at 37° C. with a 5% CO2 atmosphere. The cells were pre-incubated with 0.5 mM IBMX in PBS for 30 minutes prior to incubation with increasing concentrations of experimental compound (5×10^−12 to 10^−5M) for 30 minutes at 37° C. with a 5% CO2 atmosphere. At the end of the incubation time the compound was removed and the cells assayed for cAMP using the DiscoveRx Hit Hunter cAMP II™ assay kit.
(§3) Duplicate samples were run for each experimental compound and the data generated was analysed using EC50 analysis software in Graphpad Prism.

The target in assay [2] is T2, porcine beta-2 adrenoceptor (Sus scrofa, UniProt Q28997).
T2 construct: expressed in transfected cells; host or cells: CHO cells
In words: cAMP assay in CHO cells transfected with the porcine beta-2 adrenoceptor (DiscoveRx Hit Hunter cAMP II). The format is cell-based. The note with it: CHO cells transfected with porcine beta-2 adrenoceptor, 30 minutes incubation with compound. The protocol:
as §1, §2, §3

T2 sequence (Q28997 whole entry): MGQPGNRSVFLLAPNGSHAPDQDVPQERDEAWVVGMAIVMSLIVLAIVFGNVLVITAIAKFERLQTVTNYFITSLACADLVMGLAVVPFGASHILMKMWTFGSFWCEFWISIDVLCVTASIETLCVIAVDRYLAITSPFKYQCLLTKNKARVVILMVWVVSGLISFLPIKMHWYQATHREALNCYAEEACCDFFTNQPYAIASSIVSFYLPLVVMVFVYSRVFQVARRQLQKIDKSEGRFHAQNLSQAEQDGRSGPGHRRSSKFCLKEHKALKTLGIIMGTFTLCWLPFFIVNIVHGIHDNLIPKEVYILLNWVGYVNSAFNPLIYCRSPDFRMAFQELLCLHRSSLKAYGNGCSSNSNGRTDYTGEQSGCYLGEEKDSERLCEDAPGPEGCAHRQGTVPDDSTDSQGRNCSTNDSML
T1 sequence (Q28044 whole entry): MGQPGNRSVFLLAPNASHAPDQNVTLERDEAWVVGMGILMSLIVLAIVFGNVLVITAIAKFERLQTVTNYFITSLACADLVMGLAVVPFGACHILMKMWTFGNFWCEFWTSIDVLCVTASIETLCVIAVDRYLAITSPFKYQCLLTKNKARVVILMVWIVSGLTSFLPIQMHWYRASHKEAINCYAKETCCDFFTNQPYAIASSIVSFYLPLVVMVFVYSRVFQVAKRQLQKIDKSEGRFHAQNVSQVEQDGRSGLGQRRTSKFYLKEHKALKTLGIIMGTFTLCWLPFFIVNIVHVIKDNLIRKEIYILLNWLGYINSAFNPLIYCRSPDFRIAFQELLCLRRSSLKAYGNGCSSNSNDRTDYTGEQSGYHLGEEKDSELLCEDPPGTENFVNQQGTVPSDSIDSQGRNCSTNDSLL

Consider `CC(CCc1ccncc1)N[C@@H]1CCn2c(=O)[nH]c3cccc(c32)[C@H]1O` (mixture of isomers) [Example 27, 7-Hydroxy-6-[(1-methyl-3-pyridin-4-ylpropyl)amino]-4,5,6,7-tetrahydroimidazo[4,5,1-jk][1]benzazepin-2(1H)-one], for which the values for the EC50 in assay [1] and in assay [2] were 77 nM and 53 nM, respectively.
With `Cc1ncc(CCC(C)N[C@@H]2CCn3c(=O)[nH]c4cccc(c43)[C@H]2O)s1` (mixture of isomers) [Example 28a, 7-Hydroxy-6-{[1-methyl-3-(2-methyl-1,3-thiazol-5-yl)propyl]amino}-4,5,6,7-tetrahydroimidazo[4,5,1-jk][1]benzazepin-2(1H)-one], the results for the EC50 in assay [1] and in assay [2] were 129 nM and 104 nM, respectively.
For the molecule `CC(CCc1c[nH]c2ccc(C#N)cc12)N[C@@H]1CCn2c(=O)[nH]c3cccc(c32)[C@H]1O` (mixture of isomers) [Example 29, 3-(3-{[7-Hydroxy-2-oxo-1,2,4,5,6,7-hexahydroimidazo[4,5,1-jk][1]benzazepin-6-yl]amino}butyl)-1H-indole-5-carbonitrile], the results for the EC50 in assay [1] and in assay [2] were 83 nM and 127 nM, respectively.
The corresponding values for `CC(CCn1ccnc1)N[C@@H]1CCn2c(=O)[nH]c3cccc(c32)[C@H]1O` (mixture of isomers) [Example 30, 7-Hydroxy-6-{[3-(1H-imidazol-1-yl)-1-methylpropyl]amino}-4,5,6,7-tetrahydroimidazo[4,5,1-jk][1]benzazepin-2(1H)-one] are 48 nM and 3.8 nM.
The corresponding values for `CC(CCc1c[nH]c2ccncc12)N[C@@H]1CCn2c(=O)[nH]c3cccc(c32)[C@H]1O` (mixture of isomers) [Example 31c, 7-Hydroxy-6-{[1-methyl-3-(1H-pyrrolo[3,2-c]pyridin-3-yl)-propyl]amino}-4,5,6,7-tetrahydroimidazo[4,5,1-jk][1]benzazepin-2(1H)-one] are 366 nM and 19 nM.
As for `CC(CCc1c[nH]c2cnccc12)N[C@@H]1CCn2c(=O)[nH]c3cccc(c32)[C@H]1O` (mixture of isomers) [Example 32c, 7-Hydroxy-6-{[1-methyl-3-(1H-pyrrolo[2,3-c]pyridin-3-yl)propyl]amino}-4,5,6,7-tetrahydroimidazo[4,5,1-jk][1]benzazepin-2(1H)-one], the EC50 in assay [1] was found to be 18 nM; in assay [2] it was 8.7 nM.
Regarding `Cc1ccc2[nH]cc(CCC(C)N[C@@H]3CCn4c(=O)[nH]c5cccc(c54)[C@H]3O)c2c1` (mixture of isomers) [Example 33, 7-Hydroxy-6-{[1-methyl-3-(5-methyl-1H-indol-3-yl)propyl]amino}-4,5,6,7-tetrahydroimidazo[4,5,1-jk][1]benzazepin-2(1H)-one], the results for the EC50 in assay [1] and in assay [2] were 74 nM and 24 nM, respectively.
Regarding `Cc1ncsc1CCC(C)N[C@@H]1CCn2c(=O)[nH]c3cccc(c32)[C@H]1O` (mixture of isomers) [Example 34a, 7-Hydroxy-6-{[1-methyl-3-(4-methyl-1,3-thiazol-5-yl)propyl]amino}-4,5,6,7-tetrahydroimidazo[4,5,1-jk][1]benzazepin-2(1H)-one], the EC50 in assay [1] is 23 nM; in assay [2], 45 nM.
Regarding `CC(CCc1cc(Cl)cc2cc[nH]c12)N[C@@H]1CCn2c(=O)[nH]c3cccc(c32)[C@H]1O` (mixture of isomers) [Example 35, 6-{[3-(5-Chloro-1H-indol-7-yl)-1-methylpropyl]amino}-7-hydroxy-4,5,6,7-tetrahydroimidazo[4,5,1-jk][1]benzazepin-2(1H)-one], the EC50 was 0.8 nM in assay [1] and 2 nM in assay [2].
In the case of `CC(CCc1cccc2cc[nH]c12)N[C@@H]1CCn2c(=O)[nH]c3cccc(c32)[C@H]1O` (mixture of isomers) [Example 38d, 7-Hydroxy-6-{[3-(1H-indol-7-yl)-1-methylpropyl]amino}-4,5,6,7-tetrahydroimidazo[4,5,1-jk][1]benzazepin-2(1H)-one], the EC50 in assay [1] came to 0.6 nM; in assay [2], 1.1 nM.
Consider `CC(CCc1ncccc1O)N[C@@H]1CCn2c(=O)[nH]c3cccc(c32)[C@H]1O` (mixture of isomers) [Example 39, 7-Hydroxy-6-{[3-(3-hydroxypyridin-2-yl)-1-methylpropyl]amino}-4,5,6,7-tetrahydroimidazo[4,5,1-jk][1]benzazepin-2(1H)-one], for which the concentration giving a half-maximal response (EC50) in assay [1] was determined as 330 nM; in assay [2], 159 nM.
Take `O=c1[nH]c2cccc3c2n1CC[C@@H](NCCc1c[nH]c2ccccc12)[C@@H]3O` (racemic) [Example 40a]: the EC50 in assay [1] turned out to be 459 nM; in assay [2], 20 nM.
The corresponding values for `O=c1[nH]c2cccc3c2n1CC[C@@H](NCCc1c[nH]c2ccccc12)[C@@H]3O` (racemic) [Example 40b] are 550 nM and 28 nM.
The corresponding values for `CCOC(=O)c1[nH]c2cc(Cl)ccc2c1CCN[C@@H]1CCn2c(=O)[nH]c3cccc(c32)[C@H]1O` (racemic) [Example 41, Ethyl-6-chloro-3-(2-{[7-hydroxy-2-oxo-1,2,4,5,6,7-hexahydroimidazo[4,5,1-jk][1]benzazepin-6-yl]amino}ethyl)-1H-indole-2-carboxylate] are 546 nM and 26 nM.
The corresponding values for `CC(/C=C/c1ccc2[nH]cnc2c1)N[C@@H]1CCn2c(=O)[nH]c3cccc(c32)[C@H]1O` (mixture of isomers) [Example 42, 6-{[3-(1H-Benzimidazol-5-yl)-1-methylprop-2-en-1-yl]amino}-7-hydroxy-4,5,6,7-tetrahydroimidazo[4,5,1-jk][1]benzazepin-2(1H)-one] are 23 nM and 22 nM.
Turning to `CC(CCc1ccc2occc2c1)N[C@@H]1CCn2c(=O)[nH]c3cccc(c32)[C@H]1O` (mixture of isomers) [Example 43, 6-{[3-(1-Benzofuran-5-yl)-1-methylpropyl]amino}-7-hydroxy-4,5,6,7-tetrahydroimidazo[4,5,1-jk][1]benzazepin-2(1H)-one], the EC50 in assay [1] was determined as 16 nM; in assay [2], 11 nM.
The corresponding values for `CC(CCc1c[nH]c2ccccc12)NC1CCn2c(=O)[nH]c3cccc(c32)C1O` (single isomer, unassigned) [Example 4a, 7-Hydroxy-6-{[3-(1H-indol-3-yl)-1-methylpropyl]amino}-4,5,6,7-tetrahydroimidazo[4,5,1-jk][1]benzazepin-2(1H)-one] are 3.2 nM and 6.9 nM.
On to `CC(CCc1c[nH]c2ccccc12)NC1CCn2c(=O)[nH]c3cccc(c32)C1O` (single isomer, unassigned) [Example 4b, 7-Hydroxy-6-{[3-(1H-indol-3-yl)-1-methylpropyl]amino}-4,5,6,7-tetrahydroimidazo[4,5,1-jk][1]benzazepin-2(1H)-one], for which the EC50 in assay [1] came to 3.8 nM; in assay [2] it was 6.9 nM.
Regarding `CC(CCc1cncs1)N[C@@H]1CCn2c(=O)[nH]c3cccc(c32)[C@H]1O` (single isomer, unassigned) [Example 6a, 7-Hydroxy-6-{[1-methyl-3-(1,3-thiazol-5-yl)propyl]amino}-4,5,6,7-tetrahydroimidazo[4,5,1-jk][1]benzazepin-2(1H)-one], the results for the EC50 in assay [1] and in assay [2] were 22.9 nM and over 10000 nM, respectively.
The corresponding values for `CC(CCc1cncs1)N[C@@H]1CCn2c(=O)[nH]c3cccc(c32)[C@H]1O` (single isomer, unassigned) [Example 6b, 7-Hydroxy-6-{[1-methyl-3-(1,3-thiazol-5-yl)propyl]amino}-4,5,6,7-tetrahydroimidazo[4,5,1-jk][1]benzazepin-2(1H)-one] are 3.6 nM and over 10000 nM.
